In patent US9044389B2, “Isoxazoline derivatives as pesticides” (Novartis AG, priority 2008, dated 2015):

System: Rhipicephalus sanguineus nymphs
Test: Activity in vivo against Rhipicephalus sanguineus nymphs on Mongolian gerbils (spray application)
Settings: tick number reduction vs placebo, Abbot's formula
Protocol: On day 0, gerbils are treated with the test compound at a given dose by spray application. On day +1 (+2), the animals are infested with nymphs of R. sanguineus. Ticks are left on the animals until full repletion. Seven days after infestation nymphs dropped off fully engorged are collected and counted. Efficacy in killing is expressed as a tick number reduction in comparison with a placebo treated group, using the Abbot's formula.

Cc1cc(C2=NOC(c3cc(Cl)cc(Cl)c3)(C(F)(F)F)C2)sc1C(=O)NCC(F)(F)F (centres unmarked) [Compound 1.8, 5-[5-(3,5-dichloro-phenyl)-5-trifluoromethyl-4,5-dihydro-isoxazol-3-yl]-3-methyl-thiophene-2-carboxylic acid (2,2,2-trifluoro-ethyl)-amide]
Efficacy in killing % (Dose 32 mg/kg): 80%

Cc1cc(C2=NOC(c3cc(Cl)cc(Cl)c3)(C(F)(F)F)C2)sc1C(=O)Nc1nc(C(F)(F)F)cs1 (centres unmarked) [Compound 1.31]
Efficacy in killing % (Dose 32 mg/kg): 100%

Cc1cc(C2=NOC(c3cc(Cl)cc(Cl)c3)(C(F)(F)F)C2)sc1C(=O)NCc1ccncc1 (centres unmarked) [Compound 1.32]
Efficacy in killing % (Dose 100 mg/kg): 84%

C#CCNC(=O)CNC(=O)c1sc(C2=NOC(c3cc(Cl)cc(Cl)c3)(C(F)(F)F)C2)cc1C (centres unmarked) [Compound 1.48]
Efficacy in killing % (Dose 10 mg/kg): 95%

Cc1cc(C2=NOC(c3cc(Cl)c(F)c(Cl)c3)(C(F)(F)F)C2)sc1C(=O)NCC(=O)NCC(F)(F)F (centres unmarked) [Compound 2.5]
Efficacy in killing % (Dose 10 mg/kg): 90%

Cc1cc(C2=NOC(c3cc(Cl)c(Cl)c(Cl)c3)(C(F)(F)F)C2)sc1C(=O)NCC(=O)NCC(F)(F)F (centres unmarked) [Compound 2.4]
Efficacy in killing % (Dose 10 mg/kg): 90%

Cc1cc(C2=NOC(c3cc(Cl)cc(Cl)c3)(C(F)(F)F)C2)sc1C(=O)NCC(=O)NCC#N (centres unmarked) [Compound 1.49]
Efficacy in killing % (Dose 3.2 mg/kg): 85%

O=C(NCC(F)(F)F)c1sc(C2=NOC(c3cc(Cl)cc(Cl)c3)(C(F)(F)F)C2)cc1-c1ccccc1 (centres unmarked) [Compound 1.21]
Efficacy in killing % (Dose 32 mg/kg): 98%

Cc1cc(C2=NOC(c3cc(Cl)cc(Cl)c3)(C(F)(F)F)C2)sc1C(=O)NCC(=O)NCC(F)(F)F (centres unmarked) [Compound 1.28, 5-[5-(3,5-dichloro-phenyl)-5-trifluoromethyl-4,5-dihydro-isoxazol-3-yl]-3-methyl-thiophene-2-carboxylic acid [(2,2,2-trifluoro-ethylcarbamoyl)-methyl]-amide]
Efficacy in killing % (Dose 10 mg/kg): 96%

Cc1cc(C2=NOC(c3cc(Cl)cc(Cl)c3)(C(F)(F)F)C2)sc1C(=O)NCC1CCCO1 (centres unmarked) [Compound 1.29]
Efficacy in killing % (Dose 100 mg/kg): 92%

Cc1cc(C2=NOC(c3cc(Cl)cc(Cl)c3)(C(F)(F)F)C2)sc1C(=O)Nc1cccnc1 (centres unmarked) [Compound 1.35]
Efficacy in killing % (Dose 10 mg/kg): 82%
